Source: patent US20020098520A1, “Cell tests and diagnostic index for alzheimer's disease” (priority 1993, published 2002)
Like-named read-outs stand apart in the source and are kept apart here.

Experiments:
control fibroblasts = conditions: after 100 MM TEA addition, control cells n=4
Protocol: (§1) Patch-clamp experiments were performed at room temperature (21-23° C.), following standard procedures set forth in Sakmann, B. and Neher, E. (1983) Single Channels Recordings (Plenum New York) and Kukuljan, M., et al. (1991) J. Membrane Biol. 119:187. Before recordings, […] culture medium was replaced with the following solution: 150 mM NaCl, 5 mM KCl, 2 mM CaCl2, 1 MM MgCl2, 10 mM HEPES […] pH=7.4. Pipettes were made from Blue Tip capillary tubes (I.D. 1.1-1.2 mm) using a BB-CH Mecanex puller, and then filled with a high potassium solution of 140 mM KCl, 2 mM CaCl2, 1 mM MgCl2, 10 mM HEPES (NaOH), pH=7.4. Pipette resistances were approximately 6 MΩ. Records were obtained using an Axopatch-1C amplifier (dc-10 kHz), stored on tape (Toshiba PCM-video recorder), and later transferred to a personal computer using an Axolab interface. Only recordings lasting for at least 3 minutes were considered for final analysis. The pClamp suite of programs was used for single-channel data acquisition and analysis. Amplifier, interface and software were obtained from Axon Instruments (Foster City, Calif.).

[1] = test system: human skin fibroblasts (AD, AC, YC); conditions: for TEA Response Blind / TEA Response Non Blind: one cell line per table line
Protocol: Thirteen AD, ten AC, and six YC were used for the calcium-imaging experiments. Culture medium was replaced and washed three times with basal salt solution (“BSS”) consisting of 140 mM NaCl, 5 mM KCl2.5 mM CaCl2, 1.5 mm MgCl2, 5 mM glucose, 10 mM HEPES (NaOH), pH 7.4. Nominally Ca^2+ free BSS was prepared as BSS without adding CaCl2.
Fura-2 (acetyloxymethyl ester) (Fura-2AM) was purchased from Molecular Probes (Eugene, Oreg.) and stored as a 1 mM solution in dimethylsulfoxide. Fura-2AM was added to a final concentration of 2 µM and cells were incubated at room temperature (21°-23° C.) for 60 minutes. After incubation, cells were washed at least three times with BSS at room temperature before [Ca^2+]i determinations. Fluorescence was measured with a Hamamatsu ARGUS 50 imaging system (Hamamatsu Photonics, Japan) under the control of a personal computer (Hamamatsu imaging software package). Excitation at 340 nm and 380 nm was attenuated with neutral density filters. Fluorescent images were obtained with a 400 nm dichroic mirror and a 510 nm long-pass barrier filter. The objective lens was an X10 Nikon UV fluor. Fluorescence was measured within a uniformly illuminated fraction (¼) of the whole image.
The averaged Ca^2+ responses within 15×15 pixels in cytosolic and in nuclear cellular compartments obtained were quantified with ratios between emitted 510 nm fluorescence activated at 340 nm and fluorescence emitted at 510 nm with activation at 380 nm. These ratios were transformed to absolute values of [Ca^2+], after calibration based on the following equation:
R=Rmax+(Rmin−Rmax)/(1+([Ca^2+]i/Kd)^b).
Here R denotes fluorescence intensity illuminated by 340 nm divided by fluorescence intensity illuminated by 380 nm (F340/F380), and Rmax and Rmin are the values of R when the concentration of calcium is at a maximum and a minimum (i.e., the maximum and minimum value measurable by the machine under the measuring conditions), respectively. Kd is a dissociation constant of fura-2 for Ca^2+ and was determined as 240 nM. The value of b, which determined the degree of asymmetry, was 1.2. […] A response of 100% [Ca^+2]i elevation in at least 10% of cells in a line was, therefore, considered to be a conservative criterion for a positive response.

166 pS K^+ channel = test: Patch-clamp, cell-free patches: channel sensitivity to blockers; format: cell-based, human; conditions: outside-out patches
Protocol: as §1

113 pS K^+ channel = test: as above; format: cell-based, human; conditions: outside-out patches, n=4 YC, n=3 AC
Protocol: as §1

[2] = test system: neuropathological non-AD fibroblasts
[3] = test system: cultured fibroblasts (AD, controls, Es)
Protocol: Culture medium was removed and cells were washed at least three times with BSS (in mM: NaCl 140, KCl 5, CaCl2 2.5, MgCl2 1.5, HEPES 10, Glucose 5, pH=7.4). The fluorescent probe was loaded by incubating the cells in 2 μM (in BSS) fura 2-AM (Molecular Probes) for 60 min at room temperature. After loading, cells were washed thoroughly with BSS or BSS-0 Ca^2+ (in mM: NaCl 140, KCl 5, CaCl2 0.1, MgCl2 1.5, EGTA 1, HEPES 10, Glucose 5, pH=7.4). After washes, 1 ml of fresh solution was added for intracellular Ca^2+ baseline measurements. […] This solution was adjusted in order to introduce no osmolality changes. […] Bradykinin (Calbiochem) in BSS and BSS-0 Ca^2+ (1 ml) was also used at concentrations of 100 pM, 1 nm and 10 nM. Fluorescent images at 340 and 380 nm were acquired at a rate of 2.6/sec. for 200 sec, with a Hamamatsu Argus 50 system (Hamamatsu Photonics). The objective lens was a 10×Nikon fluor. Only the ¼ evenly illuminated area of the whole image was acquired. Individual ratio values were obtained off-line for all cells within the area of interest. Three to five dishes of a given cell line were used for each experimental condition. The number of cells measured per cell line was at least 50. In most cases, experiments for each cell line were repeated on at least one separate occasion (minimum one week interval).

[4] = 100 mM TEA, Age-Matched Control Fibroblasts
[5] = 100 mM TEA, Young Control Fibroblasts
[6] = Alzheimer's Patients, total 738 cells
[7] = Young Controls, total 532 cells

SMILES: CC[N+](CC)(CC)CC [TEA, tetraethylammonium]
- depolarization of control cells (control fibroblasts): 13-20 mV
- [Ca^2+]i elevation in response to TEA ([1]; 1 mM TEA, YC fibroblasts): elevated
- [Ca^2+]i elevation in response to TEA ([1]; 10 mM TEA, AC fibroblasts): elevated
- [Ca^2+]i elevation in response to TEA ([1]; 10 mM TEA, YC fibroblasts): elevated
- [Ca^2+]i elevation in response to TEA ([1]; 100 mM TEA, AC fibroblasts): elevated
- return of [Ca^2+]i to basal levels ([1]; 100 mM TEA, YC and AC fibroblasts): 100 s
- [Ca^2+]i elevation in response to TEA ([1]; 100 mM TEA, YC fibroblasts): elevated
- TEA Response Blind [1, 4]: +
- TEA Response Non Blind [1, 4]: +
- TEA Response Blind ([1]; 100 mM TEA, Alzheimer's Disease Fibroblasts): −
- TEA Response Non Blind ([1]; 100 mM TEA, Alzheimer's Disease Fibroblasts, criterion 100% elevation in at least 10% of cells): −
- TEA Response Blind [1, 5]: +
- TEA Response Non Blind [1, 5]: +
- Number of Cell Lines, Increase in [Ca^+2]i with 100 mM TEA ([1]; Aged Controls, total 10 cell lines): 10
- Number of Cells, Increase in [Ca^+2]i with 100 mM TEA ([1]; Aged Controls, total 417 cells): 119
- Percent of cells, Increase in [Ca^+2]i with 100 mM TEA ([1]; Aged Controls, total 417 cells): 29%
- Number of Cell Lines, Increase in [Ca^+2]i with 100 mM TEA ([1]; Alzheimer's Patients, total 13 cell lines): 0
- Number of Cells, Increase in [Ca^+2]i with 100 mM TEA [1, 6]: 4
- Percent of cells, Increase in [Ca^+2]i with 100 mM TEA [1, 6]: 0.5%
- cells with a minimum of 100% [Ca^+2]i elevation ([1]; TEA application, every control cell line except one young control): at least 18 % of cells
- cells with 100% [Ca^+2]i elevation ([1]; TEA application, the only AD cell line with any response): 4 % of cells
- Number of Cell Lines, Increase in [Ca^+2]i with 100 mM TEA ([1]; Young Controls, total 6 cell lines): 5
- Number of Cells, Increase in [Ca^+2]i with 100 mM TEA [1, 7]: 145
- Percent of cells, Increase in [Ca^+2]i with 100 mM TEA [1, 7]: 27%
- sensitivity of the 166 pS channel to TEA (166 pS K^+ channel): only the 113 PS channel was sensitive
- sensitivity of the 113 pS channel to TEA (113 pS K^+ channel): sensitive
- TEA ([2]; Parkinson's donor cell line): +
- TEA ([2]; Schizophrenia donors, one cell line per table line): +
- TEA ([2]; Wernicke-Kors. donors, one cell line per table line): +
- % of responding cells in Es cell lines ([3]; 100 mM TEA, 3 Es cell lines): lower % of responding cells
- number of control cell lines with significant Ca^2+ elevations meeting CR ([3]; 100 mM TEA, 11 control cell lines): 11
- number of AD cell lines that did not meet CR ([3]; 100 mM TEA, 14 AD cell lines): 10
- % of responding cells in AD cell lines compared to controls ([3]; TEA-induced responses): significantly reduced
